Data reported in patent US20060228419A1, “Solvent-free process for preparation of hydrophilic dispersions of nanoparticles of inclusion complexes” (SoluBest Ltd., priority 2005, published 2006).

Biological target: T1, hyaluronidase (Bos taurus, UniProt Q2YDK3)
T1 construct: purchased Sigma H 3506; host or cells: bovine testes (natural source)
T1 sequence (Q2YDK3 36-553): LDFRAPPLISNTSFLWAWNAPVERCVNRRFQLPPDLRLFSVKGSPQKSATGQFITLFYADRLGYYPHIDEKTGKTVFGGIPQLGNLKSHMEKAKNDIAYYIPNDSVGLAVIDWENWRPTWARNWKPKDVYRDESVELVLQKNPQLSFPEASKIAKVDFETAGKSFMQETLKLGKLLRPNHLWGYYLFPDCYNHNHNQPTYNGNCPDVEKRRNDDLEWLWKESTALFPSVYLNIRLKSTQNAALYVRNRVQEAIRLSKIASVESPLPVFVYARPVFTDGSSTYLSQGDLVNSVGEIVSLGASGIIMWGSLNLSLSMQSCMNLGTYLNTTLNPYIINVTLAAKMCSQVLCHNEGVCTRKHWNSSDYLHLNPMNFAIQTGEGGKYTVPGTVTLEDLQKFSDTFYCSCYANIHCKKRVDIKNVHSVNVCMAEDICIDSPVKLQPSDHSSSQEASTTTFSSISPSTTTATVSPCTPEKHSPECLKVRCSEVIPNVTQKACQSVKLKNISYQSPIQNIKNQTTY
Experiment: Stability in the presence of hyaluronidase (decrease of viscosity)
Type: in vitro ADME, bovine
Experimental: The stability of Solu-NaHA in the presence of the enzyme specific for hyaluronic acid, hyaluronidase (Sigma, H 3506, Hyaluronidase lyophilized (EC 3.2.1.35) Type I-S, from bovine testes, 608 U/mg solid) was measured by the decrease of the viscosity in time in comparison to blank. The degree of stability (protection against action of hyaluronidase) is defined as a decrease in the viscosity of the NaHA solution upon addition of the enzyme (dose of enzyme—10 U/ml). The control used was 0.1% solution of NaHA without the wrapping polymer (blank). Samples were maintained on a water bath at temperature 37° C. during 5 hrs. Sample made by Visco Star Plus. The decrease in viscosity was estimated in percentage to its initial value. The results in FIG. 5 show the stability of Solu-NaHA prepared with polymer A (NaHA with HPS) or with Polymer B (NaHA with B-790) against the action of hyaluronidase, established as 84-100% vs control 58-63%.
The stability of NaHA in the Solu-NaHA in the presence of hyaluronidase was measured by the decrease of the viscosity over time in comparison to blank. The stability of Solu-NaHA against the action of hyaluronidase was 70-90% vs 40-45% in blank (0.5% solution of NaHA).
The degree of stability of NaHA was measured as described in Example 7 above. The control used was 0.5% solution of NaHA without any polymer (blank). Samples were maintained on a water bath at temperature 37° C. during 5 hrs. Measurement of viscosity was made by Visco Star Plus. Decrease in viscosity is estimated in percentage relative to its initial value. It is established, that protection of Solu-NaHA with polymer A (HPS) against action of hyaluronidase gives a viscosity of 67-70% vs the control protection of 20-27%.

| stability against the action of hyaluronidase (0.1% NaHA, enzyme 10 U/ml, 37° C., up to 5 hrs, viscosity in percentage to initial value) | viscosity under enzyme activity, percentage relative to initial value (0.5% NaHA, 37° C., 5 hrs) | stability against the action of hyaluronidase (0.5% NaHA, viscosity over time versus blank (FIG. 6)) | Substance |
| --- | --- | --- | --- |
| 58-63% | – | – | sodium hyaluronate [0.1% solution of NaHA] |
| – | 20-27% | 40-45% | sodium hyaluronate [0.5% solution of NaHA] |
